From US6811993B2, “Diagnostic and screening methods based on monocyte PKC activity” (Joslin Diabetes Center, Inc., priority 2000, dated 2004)

System: PKC
Test: PKC activity in mononuclear cells of STZ-induced diabetic rats after treatment
Assay type: in vivo, rat
Conditions: male Sprague-Dawley rats, STZ-induced diabetes (56% increase vs control), insulin pellet inserted subcutaneously, after 2 weeks
Experimental: Monocytes of rats and also human control subjects and patients with diabetes were isolated from blood with anticoagulant of sodium citrate. The blood sample was put onto the same volume of Histopaque-1077 (Sigma) and centrifuged at 400×g for 30 minutes at room temperature. The layer containing mononuclear cells was transferred to a new tube and washed with phosphate-buffered saline (PBS). After centrifugation at 400×g for 10 minutes, cell pellet was suspended with a solution of 144 mM NH4Cl and 17 mM Tris-HCl, pH 7.65 to lyse the contaminated red blood cells. Mononuclear cells were washed with PBS and used in this study.
Mononuclear cells of human and rats and retina of rats were suspended in a buffer containing 137 mM NaCl, 4.3 mM KCl, […] Na2HPO4, 0.4 mM KH2PO4, 5.5 mM D-Glucose, 10 mM MgCl2, 1 mM CaCl2, 25 mM β-glycerophosphate, and 20 mM HEPES, pH 7.2. […] The paper was put into a scientillation vial and radioactivity of ^32p was assayed by scientillation counter. The paper was put into a scintillation vial and radioactivity of ^32p incorporated into substrate peptide per minute per mg of protein, and calculated by the difference between the activity in the presence of substrate peptide and the activity in the absence of the peptide.
Male Sprague-Dawley rats at the age of 6 weeks were used in this study. […] PKC activity in these tissues was measured as described below.

Substance: insulin
- PKC activity in rat mononuclear cells: restored to the level of control rats
